ChEMBL document CHEMBL1152154, “Bacterial translation inhibitors, 1-acylindazol-3-ols as anthranilic acid mimics” (2008)
In brackets after ≈: the same amount, converted by molar mass.

Tests used:
Format in all cases: functional
Staphylococcus aureus [1] = experiment: Antibacterial activity against Staphylococcus aureus UC9218
Staphylococcus aureus [2] = experiment: Antibacterial activity against Staphylococcus aureus UC9218 in presence of 10% human serum
Staphylococcus aureus [3] = experiment: Antibacterial activity against Staphylococcus aureus RN4220 at 100 uM by transcription-translation assay

Row | SMILES | MIC (Staphylococcus aureus [1]) [µg/mL] | MIC (Staphylococcus aureus [2]) [µg/mL] | inhibition at 100 µM (Staphylococcus aureus [3]) [%]
1 | Cn1c(C(=O)n2[nH]c(=O)c3cc(C#N)ccc32)cc2cccc(S(=O)(=O)c3ccccc3)c21 | 4 (≈ 8.76 µM) | 64 | 
2 | O=C(c1cccc(S(=O)(=O)N2CCc3ccccc32)c1)n1[nH]c(=O)c2cc(Br)ccc21 | 8 (≈ 16.1 µM) | 128 | 52
3 | Cc1ccc2c(c1)c(=O)[nH]n2C(=O)c1cccc(S(=O)(=O)N2CCc3cc(Cl)ccc32)c1 | 16 (≈ 34.2 µM) | > 128 | 49
4 | O=C(c1cccc(S(=O)(=O)N2CCc3cc(Cl)ccc32)c1)n1[nH]c(=O)c2ccc(Cl)cc21 | 8 (≈ 16.4 µM) | > 128 | 78
5 | O=C(c1cccc(S(=O)(=O)N2CCOCC2)c1)n1[nH]c(=O)c2cc(Cl)ccc21 | > 128 | > 128 | 5
6 | O=C(c1ccc(S(=O)(=O)N2CCc3cc(Cl)ccc32)cc1)n1[nH]c(=O)c2ccc(Cl)cc21 | 8 (≈ 16.4 µM) | > 128 | 86
7 | O=C(c1cccc(S(=O)(=O)N2CCc3cc(Cl)ccc32)c1)n1[nH]c(=O)c2cc(C(F)(F)F)ccc21 | 8 (≈ 15.3 µM) | > 128 | 62
8 | O=C(c1cc(-c2ccccc2)on1)n1[nH]c(=O)c2cc(Br)ccc21 | 16 (≈ 41.6 µM) | > 128 | 42
9 | CN(c1ccc(Cl)cc1)S(=O)(=O)c1cccc(C(=O)n2[nH]c(=O)c3cc(Br)ccc32)c1 | > 128 | > 128 | 55
10 | O=C(c1cccc(S(=O)(=O)N2CCOCC2)c1)n1[nH]c(=O)c2cc(Br)ccc21 | > 128 | > 128 | 3
11 | N#Cc1ccc2c(c1)c(=O)[nH]n2C(=O)c1cc2cccc(S(=O)(=O)c3ccccc3)c2[nH]1 | 16 (≈ 36.2 µM) | > 128 | 
12 | O=C(c1cnc(SCc2ccccc2)cn1)n1[nH]c(=O)c2cc(Br)ccc21 | > 128 | > 128 | 5
13 | N#Cc1ccc2c(c1)c(=O)[nH]n2C(=O)c1cncc(SCc2ccccc2)n1 | > 128 | > 128 | 7
14 | N#Cc1ccc2c(c1)c(=O)[nH]n2C(=O)c1ccc(S(=O)(=O)N2CCc3cc(Cl)ccc32)cc1 | 64 (≈ 134 µM) | > 128 | 5
15 | O=C(c1cccc(S(=O)(=O)N2CCc3cc(Cl)ccc32)c1)n1[nH]c(=O)c2cc(OC(F)(F)F)ccc21 | 4 (≈ 7.44 µM) | > 128 | 78
16 | CC(C)Sc1ccc(C(=O)n2[nH]c(=O)c3cc(Br)ccc32)cn1 | > 128 | > 128 | 49
17 | CN(c1ccc(Cl)cc1)S(=O)(=O)c1cc(Br)cc(C(=O)n2[nH]c(=O)c3cc(Br)ccc32)c1 | > 128 | > 128 | 29
18 | O=C(c1cc2cccc(S(=O)(=O)c3ccccc3)c2[nH]1)n1[nH]c(=O)c2cc(Br)ccc21 | 16 (≈ 32.2 µM) | 128 | 
19 | O=C(c1cccc(S(=O)(=O)N2CCc3cc(Cl)ccc32)c1)n1[nH]c(=O)c2cc(Br)ccc21 | 4 (≈ 7.51 µM) | 128 | 20
20 | Cn1c(C(=O)n2[nH]c(=O)c3cc(C#N)ccc32)cc2ccccc21 | 64 (≈ 202 µM) | > 128 | 49
21 | O=C(c1ccc(S(=O)(=O)N2CCc3cc(Cl)ccc32)cc1)n1[nH]c(=O)c2cc(Br)ccc21 | 8 (≈ 15 µM) | > 128 | 56
22 | O=C(c1cccc(S(=O)(=O)N2CCc3cc(Cl)ccc32)c1)n1[nH]c(=O)c2ccc(Br)cc21 | 8 (≈ 15 µM) | > 128 | 67
23 | N#Cc1ccc2c(c1)c(=O)[nH]n2C(=O)c1cccc(S(=O)(=O)N2CCc3ccccc32)c1 | 0.5 (≈ 1.12 µM) | 8 | 13
24 | N#Cc1ccc2c(c1)c(=O)[nH]n2C(=O)c1cnc(SCc2ccccc2)cn1 | > 128 | > 128 | 22
25 | Cn1c(C(=O)n2[nH]c(=O)c3cc(Br)ccc32)cc2cccc(S(=O)(=O)c3ccccc3)c21 | 2 (≈ 3.92 µM) | 128 | 
26 | N#Cc1ccc2c(c1)c(=O)[nH]n2C(=O)c1cccc(S(=O)(=O)N2CCOCC2)c1 | 64 (≈ 155 µM) | 64 | 10
27 | O=C(c1cccc(S(=O)(=O)N2CCc3cc(Cl)ccc32)c1)n1[nH]c(=O)c2cc(Cl)ccc21 | 4 (≈ 8.19 µM) | 128 | 80
28 | O=C(c1cncc(SCc2ccccc2)n1)n1[nH]c(=O)c2cc(Br)ccc21 | 32 (≈ 72.5 µM) | > 128 | 28
29 | O=C(c1ccc(S(=O)(=O)N2CCc3cc(Cl)ccc32)cc1)n1[nH]c(=O)c2cc(Cl)ccc21 | 16 (≈ 32.8 µM) | > 128 | 61
30 | N#Cc1ccc2c(c1)c(=O)[nH]n2C(=O)c1cc2ccccc2[nH]1 | 64 (≈ 212 µM) | > 128 | 99
